Measured values: PubChem BioAssay AID248 (DTP/NCI, 2004)
Where “and” joins values, the source holds several entries; their conditions need not be identical. Equal entries are not always repeated. Toxic doses and inconclusive results are not listed. Rule as the data show it: active = T/C of 150% or more; inactive = T/C below 125%.

Test system: L1210 leukemia ip in BDF1 mice, survival T/C
Assay: NCI In Vivo Anticancer Drug Screen. Data for tumor model L1210 Leukemia (intraperitoneal) in B6D2F1 (BDF1) mice
Conditions: endpoint: mean survival time, higher = longer survival
How it was run: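 Mice bearing the transplanted tumor received compound or vehicle. Survival of the treated group was divided by that of the vehicle-treated control group to give the ratio.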

[1] = dose: 50.0 mg/kg/injection, schedule: Q01DX009 (ip), vehicle: saline with Tween-80
[2] = dose: 100.0 mg/kg/injection, schedule: Q01DX001 (ip), vehicle: saline with Tween-80
[3] = dose: 200.0 mg/kg/injection, schedule: Q01DX001 (ip), vehicle: saline with Tween-80
[4] = dose: 400.0 mg/kg/injection, schedule: Q01DX001 (ip), vehicle: saline with Tween-80
[5] = dose: 400.0 mg/kg/injection, schedule: Q04DX002 (ip), vehicle: saline with Tween-80
[6] = dose: 100.0 mg/kg/injection, schedule: Q01DX001 (ip), vehicle: saline
[7] = dose: 200.0 mg/kg/injection, schedule: Q01DX001 (ip), vehicle: saline
[8] = dose: 100.0 mg/kg/injection, schedule: Q04DX003 (ip), vehicle: saline with Tween-80
[9] = dose: 200.0 mg/kg/injection, schedule: Q04DX003 (ip), vehicle: saline with Tween-80
[10] = dose: 400.0 mg/kg/injection, schedule: Q04DX003 (ip), vehicle: saline with Tween-80
[11] = dose: 50.0 mg/kg/injection, schedule: Q01DX009 (ip), vehicle: saline
[12] = dose: 100.0 mg/kg/injection, schedule: Q01DX009 (ip), vehicle: saline with Tween-80
[13] = dose: 100.0 mg/kg/injection, schedule: Q01DX009 (ip), vehicle: saline
[14] = dose: 200.0 mg/kg/injection, schedule: Q01DX009 (ip), vehicle: saline with Tween-80
[15] = dose: 25.0 mg/kg/injection, schedule: Q01DX009 (ip), vehicle: saline
[16] = dose: 100.0 mg/kg/injection, schedule: Q01DX009 (ip), vehicle: Klucel (hydroxypropylcellulose) (HPC)
[17] = dose: 100.0 mg/kg/injection, schedule: Q04DX003 (ip), vehicle: Klucel (hydroxypropylcellulose) (HPC)
[18] = dose: 200.0 mg/kg/injection, schedule: Q04DX003 (ip), vehicle: Klucel (hydroxypropylcellulose) (HPC)
[19] = dose: 400.0 mg/kg/injection, schedule: Q01DX009 (ip), vehicle: Klucel (hydroxypropylcellulose) (HPC)
[20] = dose: 400.0 mg/kg/injection, schedule: Q04DX003 (ip), vehicle: Klucel (hydroxypropylcellulose) (HPC)
[21] = dose: 200.0 mg/kg/injection, schedule: Q01DX009 (ip), vehicle: Klucel (hydroxypropylcellulose) (HPC)

Measured: T/C

O=C(NC(Cc1ccccc1)C(=O)CCl)OCc1ccccc1 (stereo unspecified)
inactive: dose: 25.0 mg/kg/injection, schedule: Q01DX009 (ip), vehicle: saline with Tween-80 115 % of control | dose: 25.0 mg/kg/injection, schedule: Q04DX002 (ip), vehicle: other 107 % of control | [1] 95 % of control | dose: 50.0 mg/kg/injection, schedule: Q04DX002 (ip), vehicle: other 93 % of control | dose: 100.0 mg/kg/injection, schedule: Q04DX002 (ip), vehicle: other 104 % of control | dose: 100.0 mg/kg/injection, schedule: Q04DX003 (ip), vehicle: saline sonified 108 % of control

Cc1c2ccn(CCCCCCCCn3ccc4c(C)c5nc6ccccc6c5c(C)c4c3)cc2c(C)c2c1nc1ccccc12
inactive: dose: 0.78 mg/kg/injection, schedule: Q04DX003 (ip), vehicle: other 98 % of control | dose: 1.56 mg/kg/injection, schedule: Q04DX003 (ip), vehicle: other 104 % of control | dose: 3.13 mg/kg/injection, schedule: Q04DX003 (ip), vehicle: other 104 % of control | dose: 6.25 mg/kg/injection, schedule: Q04DX003 (ip), vehicle: other 112 % of control | dose: 12.5 mg/kg/injection, schedule: Q04DX003 (ip), vehicle: other 118 % of control | dose: 25.0 mg/kg/injection, schedule: Q04DX003 (ip), vehicle: other 115 % of control | dose: 50.0 mg/kg/injection, schedule: Q04DX003 (ip), vehicle: other 98 % of control | dose: 100.0 mg/kg/injection, schedule: Q04DX003 (ip), vehicle: other 109 % of control

O=C1c2ccccc2C(=O)N1CCCCCN1C(=O)c2ccccc2C1=O
inactive: [2] 102 % of control | dose: 100.0 mg/kg/injection, schedule: Q04DX002 (ip), vehicle: saline with Tween-80 104 % of control | [3] 96 % of control | dose: 200.0 mg/kg/injection, schedule: Q04DX002 (ip), vehicle: saline with Tween-80 96 % of control | [4] 98 % of control | [5] 101 % of control

CNC(=S)SC
inactive: dose: 50.0 mg/kg/injection, schedule: Q01DX001 (ip), vehicle: saline 90 % of control | [6] 98 % of control | [7] 96 % of control

Nc1nc(N)c2nn(-c3ccc(C(=O)O)cc3)nc2n1
inactive: dose: 75.0 mg/kg/injection, schedule: Q01DX001 (ip), vehicle: saline 87 % of control | dose: 150.0 mg/kg/injection, schedule: Q01DX001 (ip), vehicle: saline 86 % of control | dose: 300.0 mg/kg/injection, schedule: Q01DX001 (ip), vehicle: saline 103 % of control

CN(C=O)C(=S)[S][Sb]([S]C(=S)N(C)C=O)[S]c1nc2ccc(N=Nc3ccc(NS(=O)(=O)c4ccc(NC(=O)C(Cl)Cl)cc4)cc3)cc2s1
inactive: dose: 100.0 mg/kg/injection, schedule: Q01DX001 (ip), vehicle: steriod suspending solution 101 % of control

O=C(O)CC1CCC(CC(=O)O)CC1 (stereo unspecified)
inactive: [8] 92 % of control | [9] 89 % of control | [10] 94 % of control

CS(=O)(=O)c1ccc(N)cc1
inactive: dose: 6.25 mg/kg/injection, schedule: Q04DX003 (ip), vehicle: Klucel (hydroxypropylcellulose) (HPC) 99 % of control | dose: 12.5 mg/kg/injection, schedule: Q04DX003 (ip), vehicle: Klucel (hydroxypropylcellulose) (HPC) 95 % of control | dose: 25.0 mg/kg/injection, schedule: Q04DX003 (ip), vehicle: Klucel (hydroxypropylcellulose) (HPC) 95 % of control | [1] 100 % of control | [11] 93 % of control | [12] 92 % of control | [13] 87 % of control | [14] 92 % of control | dose: 200.0 mg/kg/injection, schedule: Q01DX009 (ip), vehicle: saline 93 % of control

COC(=O)c1cc(C(=O)OC(C)(C)C)c(-c2ccc(OC)c(OC)c2)c2cc(OC)c(OC)cc12
inactive: [6] 100 % of control | [7] 101 % of control | dose: 400.0 mg/kg/injection, schedule: Q01DX001 (ip), vehicle: saline 103 % of control

CC(C)C1(O)C2C3CCC(C3)C2C(=O)C2C3CCC(C3)C21 (stereo unspecified)
inactive: [1] 96 % of control | [12] 93 % of control | [14] 93 % of control

O=[N+]([O-])c1cc([N+](=O)[O-])cc(S(=O)(=O)O)c1
inactive: [15] 106 % of control | [11] 105 % of control | [13] 100 % of control and 111 % of control | dose: 100.0 mg/kg/injection, schedule: Q04DX003 (ip), vehicle: saline 105 % of control | dose: 200.0 mg/kg/injection, schedule: Q04DX003 (ip), vehicle: saline 105 % of control

CC1([N+](=O)[O-])COP(=O)(Nc2ccccc2F)OC1 (stereo unspecified)
inactive: dose: 100.0 mg/kg/injection, schedule: Q01DX001 (ip), vehicle: carboxymethylcellulose (CMC) 101 % of control | dose: 200.0 mg/kg/injection, schedule: Q01DX001 (ip), vehicle: carboxymethylcellulose (CMC) 95 % of control | dose: 400.0 mg/kg/injection, schedule: Q01DX001 (ip), vehicle: carboxymethylcellulose (CMC) 104 % of control

O=C1CCCc2c1ccc1ccccc21
inactive: [16] 97 % of control | [17] 101 % of control | [18] 103 % of control | [19] 100 % of control | [20] 100 % of control

CCOC(=O)NC(CC)CO (stereo unspecified)
inactive: [16] 96 % of control | [17] 96 % of control | [21] 92 % of control | [18] 104 % of control | [19] 108 % of control | [20] 96 % of control

O=C(COc1ccc(Cl)cc1)Nc1ccc(Cl)cc1
inactive: [16] 91 % of control | [17] 92 % of control | [18] 93 % of control | [19] 88 % of control | [20] 93 % of control

c1ccc(C(c2ccccc2)[Si](c2ccccc2)(c2ccccc2)C(c2ccccc2)c2ccccc2)cc1
inactive: dose: 25.6 mg/kg/injection, schedule: Q04DX002 (ip), vehicle: saline with Tween-80 107 % of control | dose: 50.0 mg/kg/injection, schedule: Q01DX009 (ip), vehicle: Klucel (hydroxypropylcellulose) (HPC) 90 % of control | dose: 64.0 mg/kg/injection, schedule: Q04DX002 (ip), vehicle: saline with Tween-80 100 % of control | [16] 86 % of control | [8] 94 % of control | dose: 160.0 mg/kg/injection, schedule: Q04DX002 (ip), vehicle: saline with Tween-80 100 % of control | [21] 88 % of control | [9] 96 % of control | [5] 110 % of control | [10] 91 % of control

CN(C)c1ccc(CNc2cccc([N+](=O)[O-])c2)cc1
inactive: [2] 96 % of control | [3] 90 % of control | [4] 95 % of control

Cc1cc(CSC2=NCCCN2)c(CSC2=NCCCN2)cc1C
inactive: dose: 6.25 mg/kg/injection, schedule: Q01DX001 (ip), vehicle: saline 96 % of control | dose: 6.25 mg/kg/injection, schedule: Q01DX009 (ip), vehicle: saline 100 % of control and 111 % of control | dose: 6.25 mg/kg/injection, schedule: Q04DX002 (ip), vehicle: saline with Tween-80 94 % of control | dose: 6.25 mg/kg/injection, schedule: Q04DX003 (ip), vehicle: saline 91 % of control | dose: 12.5 mg/kg/injection, schedule: Q01DX001 (ip), vehicle: saline 97 % of control | dose: 12.5 mg/kg/injection, schedule: Q01DX009 (ip), vehicle: saline 102 % of control and 92 % of control | dose: 12.5 mg/kg/injection, schedule: Q04DX002 (ip), vehicle: saline with Tween-80 97 % of control | dose: 12.5 mg/kg/injection, schedule: Q04DX003 (ip), vehicle: saline 90 % of control | dose: 25.0 mg/kg/injection, schedule: Q01DX001 (ip), vehicle: saline 99 % of control and 108 % of control | [15] 96 % of control and 101 % of control | dose: 25.0 mg/kg/injection, schedule: Q04DX002 (ip), vehicle: saline with Tween-80 100 % of control | dose: 25.0 mg/kg/injection, schedule: Q04DX002 (ip), vehicle: saline 87 % of control | dose: 25.0 mg/kg/injection, schedule: Q04DX003 (ip), vehicle: saline 89 % of control | [6] 93 % of control
